In this assay the test system is testosterone 5α-reductase. Put plainly: Testosterone 5α-reductase micro radioassay (crude nuclear fraction of ventral prostate). The following applies: 0.1 mg/ml 17-alpha-estradiol, with or without 20 μg/ml UL-OHA; 37° C., 1 hour. It counts as biochemical. On the procedure: The effect of UL-OHA on inhibiting increase in testosterone 5α-reductase activity can be verified with a micro radioassay.
Biopsies of ventral prostate homogenized with 9 volumes of 0.1 M PBS are filtered through gauze and centrifuged at 3000 rpm for 10 minutes to obtain a crude nuclear fraction. The supernatant is discarded and the pellet resuspended in PBS. This process is repeated once again and the second suspension is used as enzyme solution for the assay.
1 mCi of [4-^14C] testosterone with 17-alpha-estradiol+UL-OHA (calculated for a final conc. of 0.1 mg/ml and 20 μg/ml respectively) and 17-alpha-estradiol (final conc. 0.1 mg/ml) are placed in test tubes and heated to dryness under nitrogen flow. 10 μl of 50 mM NADPH, 60 μl of PBS and 30 μl of testosterone 5α-reductase solution are added and the test tubes and incubated at 37° C. for 1 hour. Finally 0.4 ml of chloroform:methanol (1:2 v/v) are added in order to terminate the reaction and the mixture is centrifuged at 3000 rpm for 10 minutes. […]
The radioactive activity of each extract based on the resulting quantity of testosterone, 5α-dihydro-testosterone, 5α-androstan-3α,17β-diol and 5α-androstan-3β,17β-diol is measured by reading the intensity of isotope emission from the plates as described by Hamada K et al. (IFSCC Magazine 4(2):83-87, 2001). […]

Turning to `C[C@]12CC[C@@H]3c4ccc(O)cc4CC[C@H]3[C@@H]1CC[C@H]2O` [17-alpha-estradiol], the “Percentage inhibition of testosterone conversion relative to the control (anti-androgenic activity)” value worked out at 20%.

The record behind these values is patent publication US20080051351A1, “Substances, Compositions, and Methods for Treating Alopecia” (priority 2005, published 2008).
